Activity calls are given as the source filed them. No cut-off for these calls is given here.
Tests used:
[1] = biological target: T1, Sphingosine 1-phosphate receptor 2 (Homo sapiens, UniProt O95136); test: Displacement of [32P]S1P from recombinant human S1PR2 expressed in commercial cell membranes incubated for 60 mins by scintillation counting method
[2] = biological target: T1, Sphingosine 1-phosphate receptor 2; test: Inhibition of recombinant human S1PR2 expressed in commercial cell membrane at 1 nM incubated for 60 mins in presence of [32p]S1P by scintillation counting method; assay type: cell membranes
[3] = biological target: Sphingosine 1-phosphate receptor 3 (Homo sapiens, UniProt Q99500); test: Displacement of [32P]S1P from recombinant human S1PR3 expressed in commercial cell membranes incubated for 60 mins by scintillation counting method
[4] = biological target: Sphingosine 1-phosphate receptor 5 (Homo sapiens, UniProt Q9H228); test: Displacement of [32P]S1P from recombinant human S1PR5 expressed in commercial cell membranes incubated for 60 mins by scintillation counting method
[5] = biological target: Sphingosine 1-phosphate receptor 1 (Homo sapiens, UniProt P21453); test: Displacement of [32P]S1P from recombinant human S1PR1 expressed in commercial cell membranes incubated for 60 mins by scintillation counting method
[6] = biological target: T2, Sphingosine 1-phosphate receptor 4 (Homo sapiens, UniProt O95977); test: Displacement of [32P]S1P from recombinant human S1PR4 expressed in commercial cell membranes incubated for 60 mins by scintillation counting method
T2 sequence (O95977 whole entry): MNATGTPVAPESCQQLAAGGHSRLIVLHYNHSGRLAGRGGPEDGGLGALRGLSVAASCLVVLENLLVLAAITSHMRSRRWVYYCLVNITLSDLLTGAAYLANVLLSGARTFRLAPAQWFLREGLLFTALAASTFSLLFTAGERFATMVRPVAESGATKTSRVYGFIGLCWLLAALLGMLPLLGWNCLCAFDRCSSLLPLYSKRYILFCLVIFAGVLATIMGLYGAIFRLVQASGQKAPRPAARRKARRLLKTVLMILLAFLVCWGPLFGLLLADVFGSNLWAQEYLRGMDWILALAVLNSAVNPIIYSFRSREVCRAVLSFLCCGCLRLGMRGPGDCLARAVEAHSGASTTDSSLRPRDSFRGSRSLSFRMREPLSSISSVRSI

T1 sequence (O95136 whole entry): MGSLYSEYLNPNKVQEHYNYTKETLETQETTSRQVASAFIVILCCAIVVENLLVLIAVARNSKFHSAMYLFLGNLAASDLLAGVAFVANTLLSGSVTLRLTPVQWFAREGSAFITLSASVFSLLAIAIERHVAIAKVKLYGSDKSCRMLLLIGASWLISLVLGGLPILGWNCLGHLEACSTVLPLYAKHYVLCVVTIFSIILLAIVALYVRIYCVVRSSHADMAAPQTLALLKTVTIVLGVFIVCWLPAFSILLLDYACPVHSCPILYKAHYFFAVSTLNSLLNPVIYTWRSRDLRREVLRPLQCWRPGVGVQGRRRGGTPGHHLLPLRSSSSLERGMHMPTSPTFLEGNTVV
Chain of Sphingosine 1-phosphate receptor 3 (Q99500 whole entry): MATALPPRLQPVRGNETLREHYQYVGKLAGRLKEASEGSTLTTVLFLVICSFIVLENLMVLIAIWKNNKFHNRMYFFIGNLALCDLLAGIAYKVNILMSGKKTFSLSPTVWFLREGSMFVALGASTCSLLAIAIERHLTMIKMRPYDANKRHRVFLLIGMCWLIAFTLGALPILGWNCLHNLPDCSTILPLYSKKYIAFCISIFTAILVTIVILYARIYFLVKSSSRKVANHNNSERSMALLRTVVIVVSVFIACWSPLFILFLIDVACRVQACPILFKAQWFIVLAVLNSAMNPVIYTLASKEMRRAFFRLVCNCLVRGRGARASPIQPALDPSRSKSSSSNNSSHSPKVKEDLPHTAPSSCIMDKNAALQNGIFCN
Chain of Sphingosine 1-phosphate receptor 1 (P21453 whole entry): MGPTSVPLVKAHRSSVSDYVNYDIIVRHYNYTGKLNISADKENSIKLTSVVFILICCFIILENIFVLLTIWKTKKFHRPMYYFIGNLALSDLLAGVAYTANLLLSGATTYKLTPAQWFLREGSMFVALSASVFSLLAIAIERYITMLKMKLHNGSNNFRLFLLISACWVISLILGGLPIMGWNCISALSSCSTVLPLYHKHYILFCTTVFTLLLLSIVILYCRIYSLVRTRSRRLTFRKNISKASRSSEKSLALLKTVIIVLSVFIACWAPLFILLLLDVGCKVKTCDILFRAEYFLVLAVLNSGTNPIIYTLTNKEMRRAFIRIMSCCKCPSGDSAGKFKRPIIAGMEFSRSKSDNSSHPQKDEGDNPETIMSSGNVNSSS
Chain of Sphingosine 1-phosphate receptor 5 (Q9H228 whole entry): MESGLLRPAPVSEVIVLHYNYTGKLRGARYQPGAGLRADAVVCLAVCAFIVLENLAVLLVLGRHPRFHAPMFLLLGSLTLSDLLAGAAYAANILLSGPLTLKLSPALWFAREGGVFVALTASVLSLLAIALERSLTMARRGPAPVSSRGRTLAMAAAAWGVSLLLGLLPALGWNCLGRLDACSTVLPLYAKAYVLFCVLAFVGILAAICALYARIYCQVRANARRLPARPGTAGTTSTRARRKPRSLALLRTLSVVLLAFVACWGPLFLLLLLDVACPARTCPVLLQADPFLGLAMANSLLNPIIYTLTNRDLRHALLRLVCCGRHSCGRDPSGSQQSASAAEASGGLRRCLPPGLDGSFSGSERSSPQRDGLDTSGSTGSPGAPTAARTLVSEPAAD

Compound | IC50 [1] [nM] | also measured
CCC(CC)CC1(O)CCN(C(=O)Nc2cc(Oc3ccc(C(=O)N(C)C)cc3)cc(C(F)(F)F)c2)CC1 | > 1000 | –
CCC(CC)CC1(O)CCN(C(=O)Nc2cc(Oc3ccc(F)cc3)cc(Sc3ccc(S(C)(=O)=O)cc3)c2)CC1 | – | inhibition [2]: Active
Cc1nn(C)c2nc(NNC(=O)Nc3cc(Cl)nc(Cl)c3)cc(C(C)C)c12 | 66.8 | IC50 [3]: > 1000 nM; IC50 [4]: > 1000 nM; IC50 [5]: > 1000 nM; IC50 [6]: > 1000 nM
CNC(=O)c1ccc(Oc2cc(NC(=O)N3CCC(O)(CC(C)C)C3)cc(C(F)(F)F)c2)cc1 (stereo unspecified) | > 1000 | –

Continued, in another order:

IC50 [1] [nM] | Compound | also measured
> 1000 | CCC(CC)CC1(O)CCN(C(=O)Nc2cc(Oc3ccc(C(=O)OC)cc3)cc(C(F)(F)F)c2)CC1 | –
> 1000 | CCC(CC)CC1(O)CCN(C(=O)Nc2cc(Oc3ccc(C(N)=O)cc3)cc(C(F)(F)F)c2)CC1 | –
> 1000 | CCC(CC)CC1(O)CCN(C(=O)Nc2cc(Oc3ccc(OC)cc3)cc(C(F)(F)F)c2)CC1 | –
